Experiments:
in vitro = settings: human
Description: (§1) The seeding medium and culture medium of hiSIECs for LLI and ALI were obtained from FUJIFILM Corporation. hiSIECs were cultured according to the manufacturer’s instructions. Briefly, Fluid3D-X® devices were coated with Corning Matrigel GFR Basement Membrane Matrix (Corning) on the day before seeding the cells. hiSIECs were seeded onto a Fluid3D-X® device at 5.3 × 10^5 cells/MPS and incubated for 5.5 h. The seeding medium was added to the device, and cell culture was started in flow for 11 days at 20 pps 1/4 (3.8 µL/min). After one day, the seeding medium was replaced with LLI culture medium, and the medium was changed every two or three days. ALI culture was performed using the same method as the LLI culture, but the apical channel medium was removed to expose the cells to air on day 4. On day 11 after seeding, the gut MPS was used for the assay.
(§2) Eight gut chips were divided into two groups: with and without inhibitors. […] Because all steps were performed under static conditions, 200 µL of buffer was transferred from the outlet to the inlet by a micropipette before collection of each sample. Serial sampling (150 µL) was performed at following time points (0, 30, 60, 90, and 120 min) from both the donor and acceptor sides. Equal volumes of fresh buffer were added after the sample collection. At the end of the experiment (120 min), the cell lysates were collected. The concentrations of drugs and/or metabolites in the transport buffer and cells were measured by LC-MS/MS. To observe the inhibitory effects of the inhibitor on compound transport, transport experiments were performed in the presence of an inhibitor cocktail containing ketoconazole (10 µM), PSC833 (5 µM), and Ko143 (5 µM) to inhibit CYP3A4, P-gp, and BCRP.
(§3) The permeability, efflux ratio, and Fg parameters were derived as follows:
(§4) The apparent permeability coefficient (Papp, cm/s) was calculated using Eq. (1):1 [drawing 1]
(§5) where dQ/dt, MPS surface area, and C0 represent the amount of the test compound transported to the receiver compartment per unit time when the linearity of its time-dependent transport was
(§6) apparently maintained, the culture area of the gut MPS/Fluid3D-X (0.64 cm^2), and the
(§7) initial concentration of the test compound in the donor compartment.2 [drawing 2]
(§8) where Papp, basal to apical and Papp, apical to basal represent the apparent permeability coefficient in the
(§9) basolateral-to-apical and apical-to-basolateral directions, respectively.
(§10) The intestinal availability (Fg) of CYP3A substrates was calculated based on a previous report[35] using the following equation:3 [drawing 3]
(§11) where CLapical to basal (+ inhibitor) and CLapical to basal (-inhibitor) represent the transcellular transport clearance in the apical-to-basolateral direction in the presence or absence of the inhibitor, respectively.
(§12) The specimens were deproteinated with 3-times volumes of acetonitrile and centrifuged to obtain supernatants. For quantification of the drug concentration on the donor side, the specimens were further diluted 20 times with acetonitrile. Two microliters of each sample was subjected to LC–MS/MS analysis. An AB SCIEX QTRAP 5500 + mass spectrometer (Applied Biosystems, Foster City, CA) equipped with a Nexera X2 LC system (Shimadzu, Kyoto, Japan), operated in electron spray ionization mode, was used for the analysis. Chromatographic separation was performed at 40 °C on a GL Sciences Inc instrument. InertSustain C18 HP analytical column (2.1 I.D. × 100 mm, 3 μm) at a flow rate of 0.5 ml/min using the gradient method. The mobile phase consisted of 2 mmol/L ammonium acetate and 0.1% formic acid in water (mobile phase A) and 0.1% formic acid in acetonitrile (mobile phase B). […] The ion spray voltage and temperature were set at 4500 V and 600 °C, respectively.

[1] = test system: hiSIECs monolayers in gut MPS/Fluid3D-X; experiment: in vitro; settings: for effect of inhibitor cocktail on apical-to-basal transport: ketoconazole 10 µM
Description: as §1, §2, §3, §4, §5, §6, §7, §8, §9, §10, §11, §12

[2] = in vivo, human; cited from earlier work
hiSIECs = settings: ref 20 (Shirai et al.); cited from earlier work
[3] = test system: hiSIECs monolayers in gut MPS/Emulate; experiment: Permeability / donor concentration of test drugs using gut MPS/Emulate (fluidic conditions)
Description: F-hiSIEC was thawed and suspended in seeding medium according to the manufacture’s protocol. The suspension of F-hiSIEC (6.0×10^6 cells/mL, 35-40 μL/chip) was transferred to the chip and incubated at 37 °C overnight. The cells were then cultured in maintenance medium under perfusion culture conditions at a flow rate of 15 μL/hr from day1 to day 4 and 30 μL/h from day 5 to day9. Gravity wash and prime cycle were performed when necessary. Additionally, the membrane strain rate was set to 2% at a frequency of 0.15 Hz from day 3 to day 5 and to 10% from day 6 to day 9. The permeability of the test drugs was assessed on day 9.
The test drugs were added to the culture medium. The top and bottom channels of the chip were perfused with the media at a flow rate of 30 μL/h. […] Inhibitors (10μM Ketoconazole, 5μM PSC833 and 5μM Ko143) were added as a cocktail to both the channels. Media were collected from the outlet chamber at 6, 24, 30, and 48 h.

[4] = Papp, apical to basal, inhibitor (+)
[5] = Papp, apical to basal, inhibitor (-)
[6] = Papp, basal to apical, inhibitor (-), no inhibitor, mean ± SD, n = 4, deuterium-labeled compound dosed to basal side, apical pH 6.5, basal pH 7.4
[7] = with ketoconazole 10 µM, PSC833 5 µM, Ko143 5 µM (both sides)

Row | SMILES | Papp at 120 min (in vitro; [4]) | Papp at 120 min (in vitro; [5]) | effect of inhibitor cocktail on apical-to-basal transport ([1]; PSC833 5 µM, Ko143 5 µM) | efflux ratio at 120 min (in vitro) | Papp at 120 min (in vitro; [6]) | Papp at 120 min (in vitro; [7]) | efflux ratio at 120 min (in vitro; [7]) | further results
1 | Cc1cc(=O)n(-c2ccccc2)n1C [Antipyrine] | 18.5 ± 1.2 ×10⁻⁶ cm/s | 20.1 ± 2.7 ×10⁻⁶ cm/s | not affected by the inhibitors |  |  |  |  | efflux ratio at 120 min (in vitro; Efflux ratio (ER), inhibitor (+)): 0.78 ± 0.076; efflux ratio at 120 min (in vitro; Efflux ratio (ER), inhibitor (-)): 0.656 ± 0.12; Papp at 120 min (in vitro; Papp, basal to apical, inhibitor (+)): 14.4 ± 0.7 ×10⁻⁶ cm/s; Papp at 120 min (in vitro; Papp, basal to apical, inhibitor (-)): 13.2 ± 1.1 ×10⁻⁶ cm/s
2 | O=C(O)c1cc(/N=N/c2ccc(S(=O)(=O)Nc3ccccn3)cc2)ccc1O [Sulfasalazine] | 0.557 ± 0.095 ×10⁻⁶ cm/s | 0.505 ± 0.072 ×10⁻⁶ cm/s |  | 12.7 ± 2.3 | 6.44 ± 0.45 ×10⁻⁶ cm/s | 1.1 ± 0.29 ×10⁻⁶ cm/s | 1.97 ± 0.76 | decrease in intrinsic clearance (directional transport) in the presence of transporter inhibitors ([1]; inhibitor cocktail ketoconazole 10 µM, PSC833 5 µM, Ko143 5 µM): 85%
3 | Cc1ncc2n1-c1ccc(Cl)cc1C(c1ccccc1F)=NC2 [Midazolam] |  |  | increased with the addition of inhibitors |  |  |  |  | Papp at 120 min (in vitro; Papp, apical to basal, inhibitor (+), inhibitor cocktail ketoconazole 10 µM, PSC833 5 µM, Ko143 5 µM, mean ± SD, n = 3): 14.4 ± 1.9 ×10⁻⁶ cm/s; Papp at 120 min (in vitro; Papp, apical to basal, inhibitor (-), no inhibitor, mean ± SD, n = 4, apical pH 6.5, basal pH 7.4): 11.2 ± 0.6 ×10⁻⁶ cm/s; fraction that escaped from the gut metabolism (Fg) ([1]; from ratio of apical-to-basal transport clearance with and without inhibitor): 0.64; Fg, clinical value [2]: 0.55; Fg reported by Shirai et al. (hiSIECs): 0.74; donor concentration relative to spiked concentration ([3]; presumably adsorption to the device): almost half of the spiked concentration
4 | OCc1ncc2n1-c1ccc(Cl)cc1C(c1ccccc1F)=NC2 [1-hydroxymidazolam] |  |  |  |  |  |  |  | secretion of metabolite to apical versus basal channel side ([1]; midazolam dosed apical): preferentially secreted to the apical channel side; formation of metabolite 1-hydroxymidazolam from midazolam in presence of inhibitors ([1]; midazolam dosed apical, inhibitor cocktail): decreased formation
5 | C=C[C@H]1C[N@@]2CC[C@H]1C[C@@H]2[C@@H](O)c1ccnc2ccc(OC)cc12 [Quinidine] | 3.88 ± 1.12 ×10⁻⁶ cm/s | 2.15 ± 0.33 ×10⁻⁶ cm/s |  | 2.02 ± 0.37 | 4.37 ± 0.15 ×10⁻⁶ cm/s | 4.37 ± 1.53 ×10⁻⁶ cm/s | 1.12 ± 0.63 | effluent concentration as percent of the corresponding inlet concentrations ([3]; at 24 h): 82%; reduction of concentration in the effluent relative to original drug solution ([3]; within the first 6 h): 29%

Source: PMC11612460, “Development of a novel gut microphysiological system that facilitates assessment of drug absorption kinetics in gut” (Scientific Reports, 2024)
